Test results taken from US8450357B2, “Compositions comprising an aryl pyrazole and/or a formamidine, methods and uses thereof” (Merial Limited, priority 2008, dated 2013).
Where two headings read alike, the source gives them in different places.

Tests used:
Format in all cases: in vivo
[1] = system: adult Rhipicephalus sanguineus; assay: Tick motility petri dish assay with imaging system, amitraz and fipronil; settings: for Geometric Mean of movement values for stimulated ticks: amitraz 0.32 ug/cm^2, fipronil serial dilutions 1.3-0.005 ug/cm^2; for motility of ticks over time: compound alone, compared to solvent control treated ticks
Text: An imaging system was used for the automated analysis of tick motility in response to amitraz and fipronil treatments to remove the subjective interpretation of manual test evaluation. The study was designed to evaluate the affect of amitraz and fipronil alone and in combination, as compared to a control, on the motility of ticks over time.
The motility of adult Rhipicephalus sanguineus was compared for amitraz-only, fipronil-only and the combination of fipronil and amitraz in a petri dish assay using the imaging system. The assay was run using a fixed dilution of amitraz (0.32 ug/cm^2), with serial dilutions of fipronil (1.3, 0.33, 0.08, 0.02, or 0.005 ug/cm^2) alone and in combination with the fixed dilution of amitraz. Six independent replications were conducted.
A plate holding four petri dishes was custom made for the imaging system. At each time point the plate holding four petri dishes was placed on the imaging system and evaluated for motility. The set up of the plate for each evaluation is illustrated below in Table 21.
For Dish A1, a volume of 625 μL of ethanol was used to treat the tops and 625 μL to treat the bottoms of the petri dish. All solutions were formulated in 100% ethanol. For Dish A2, a volume of 125 μL of the 25 ppm amitraz solution was used to treat the tops and 125 μL to treat the bottoms of the petri dish. For Dish B1, the top and bottom portions of the petri dishes were each treated with 500 μL of the 25 ppm solution of fipronil (serially diluted for each Plate 1-5) and 125 μL of the 25 ppm solution of amitraz. And for Dish B2, each of the top and bottom portions of the petri dishes were treated with 500 μL of the 25 ppm solution of fipronil (serially diluted for each Plate 1-5). After application of the corresponding solution to the petri dishes, the petri dishes were left open under a fan and allowed to dry for 1 hour. After drying, the dishes were infested with 10 adult Rhipicephalus sanguineus (supplied by Ecto Services, Inc. Henderson, N.C.). The ticks were left undisturbed for 1 hour before evaluation in the imaging system. Between evaluations ticks were maintained at approximately 21° C. and 60% RH.
After the initial hour, each Plate 1-5 was sequentially placed into the imaging system for evaluation. Image processing calculates the change in movement of the ticks between each image. The value generated is equal to the movement in each petri dish during the image time. The ticks in each individual petri dish were then stimulated to move by breathing/exhaling into the plate. After stimulation, the plates were placed back into the imaging system for another evaluation to determine if the treatment affected the tick's ability to move. Image capture was repeated as in the pre-stimulated evaluation.
Evaluations were made at 1, 4, 18, and 24 hours post infest (hpi) for 3 trials. For 3 trials the 4 hour evaluation was not done and for 3 trials the third evaluation was done at 21 to 22 hours. Raw data values were exported from the imaging system and comparative analysis of treatments over time was conducted.

[2] = system: adult brown dog ticks (Rhipicephalus sanguineus); assay: Tick DMSO contact assay, Compound 1 with amitraz, Example 15; settings: for mortality at 6.25 ppm / mortality at 12.5 ppm / mortality at 25 ppm: Rhipicephalus sanguineus; for Synergistic Ratio (EC50): EC50 alone divided by EC50 with Amitraz (12.5 ppm); for Synergistic Ratio (EC90): EC90 alone divided by EC90 with Amitraz (12.5 ppm)
Protocol: Dosages were serially diluted using this same formulation.
Scintillation vials were treated with commercial and experimental compounds using the same procedure described in Example 12 above. The treated vials were used to determine the contact toxicity of compounds against adult brown dog ticks (Rhipicephalus sanguineus). The ticks were supplied by Ecto Services Inc. Henderson, N.C.
Unfed adult ticks were released into a metal pan and 10 living ticks were aspirated into each vial. […] Two replicates were tested for each treatment and the results were averaged. Ticks were stimulated by gently exhaling in the vials. Within the same time period, the addition of amitraz to an equal dosage of compound 1 increased mean mortality.

fleas = assay: Efficacy of combination of fipronil and amitraz against fleas on dogs; settings: topical
Protocol: A fipronil formulation (commercial product) was prepared and stored separately from amitraz. Amitraz was formulated with the same carrier. Both parts, fipronil and amitraz in solvent(s) were stored separately and applied simultaneously. Amounts applied were calculated to keep dose at 10% (w/v) each in final formulation and 10 mg/kg BW of actives in amount applied.
The amitraz and fipronil composition described in Example 10 were used in this study. […] Treatment was applied by parting the hair on the midline of the neck, between the base of the skull and the shoulder blades, and applying the formulation directly onto the skin.

Ctenocephalides felis = assay: Study D: flea efficacy of Compound 1 and fipronil in cats
Protocol: A fourth clinical study was conducted to determine the efficacy of topically administered Compound 1 and fipronil against induced infections of Ctenocephalides felis in cats. Twenty four cats (17 males, 7 females) were included in the study. Six replicates of four cats each were formed based on decreasing Day −5 flea counts. Within replicates, cats were randomly allocated to Treatment Groups 1, 2, 3 or 4, respectively, by using a die: Group 1—untreated (vehicle control); Group 2—Compound 1 (10 mg/kg); Group 3—Compound 1 (20 mg/kg); Group 4—fipronil (10 mg/kg). Treatment was performed by topical administration of the formulations in the midline of the neck, between the base of the skull and the shoulder blades in a single spot after parting the hair. Animals were observed hourly for approximately four hours following treatment.
The cats were infested with approximately 100 Ct. felis fleas each during acclimation on Day −6 for allocation purposes, and on Days −1, 14, 21, 28, 35 and 42 for treatment efficacy evaluation purposes. The fleas were removed by combing each cat approximately 24 hours following each infestation except for the Day −1 infestation which was followed by flea removal and count on Day 1 (˜48 hours following infestation).

[3] = 6 h, read-out: 6 hour % Mortality Rep 1
[4] = 6 h, read-out: 6 hour % Mortality Rep 2
[5] = 6 h, read-out: 6 hour Avg. % Mortality
[6] = 24 h, read-out: 24 hour % Mortality Rep 1
[7] = 24 h, read-out: 24 hour % Mortality Rep 2
[8] = 24 h, read-out: 24 hour Avg. % Mortality
[9] = 48 h, read-out: 48 hour % Mortality Rep 1
[10] = 48 h, read-out: 48 hour % Mortality Rep 2
[11] = 48 h, read-out: 48 hour Avg. % Mortality

**Q.** Which “Geometric Mean of movement values for stimulated ticks” value (“Geometric Mean of movement values” below) ([1]; 21-22 hours post infestation) does the source give for `Cc1ccc(/N=C/N(C)/C=N/c2ccc(C)cc2C)c(C)c1` [Amitraz, amitraz] here?
**A.** 30,300

**Q.** What about the “Geometric Mean of movement values” value ([1]; 1 hours post infestation) of the same compound?
**A.** 56,900

**Q.** And the “Geometric Mean of movement values” value ([1]; 4 hours post infestation)?
**A.** 44,300

**Q.** And the “Geometric Mean of movement values” value ([1]; 18 hours post infestation)?
**A.** 33,200

**Q.** And the “Geometric Mean of movement values” value ([1]; 24 hours post infestation)?
**A.** 34,300

**Q.** What about the “motility of ticks over time” value [1] of the same compound?
**A.** increase in motility

**Q.** And the mortality at 6.25 ppm [2, 3]?
**A.** 0%

**Q.** What about the mortality at 12.5 ppm [2, 3] of the same compound?
**A.** 0%

**Q.** And the mortality at 25 ppm [2, 3]?
**A.** 0%

**Q.** What about the mortality at 6.25 ppm [2, 4] of the same compound?
**A.** 0%

**Q.** What about the mortality at 12.5 ppm [2, 4] of the same compound?
**A.** 0%

**Q.** And the mortality at 25 ppm [2, 4]?
**A.** 0%

**Q.** And the mortality at 6.25 ppm [2, 5]?
**A.** 0%

**Q.** What about the mortality at 12.5 ppm [2, 5] of the same compound?
**A.** 0%

**Q.** And the mortality at 25 ppm [2, 5]?
**A.** 0%

**Q.** What about the mortality at 6.25 ppm [2, 6] of the same compound?
**A.** 0%

**Q.** And the mortality at 12.5 ppm [2, 6]?
**A.** 0%

**Q.** What about the mortality at 25 ppm [2, 6] of the same compound?
**A.** 0%

**Q.** What about the mortality at 6.25 ppm [2, 7] of the same compound?
**A.** 0%

**Q.** What about the mortality at 12.5 ppm [2, 7] of the same compound?
**A.** 0%

**Q.** What about the mortality at 25 ppm [2, 7] of the same compound?
**A.** 0%

**Q.** What about the mortality at 6.25 ppm [2, 8] of the same compound?
**A.** 0%

**Q.** What about the mortality at 12.5 ppm [2, 8] of the same compound?
**A.** 0%

**Q.** What about the mortality at 25 ppm [2, 8] of the same compound?
**A.** 0%

**Q.** What about the mortality at 6.25 ppm [2, 9] of the same compound?
**A.** 0%

**Q.** What about the mortality at 12.5 ppm [2, 9] of the same compound?
**A.** 0%

**Q.** And the mortality at 25 ppm [2, 9]?
**A.** 10%

**Q.** And the mortality at 6.25 ppm [2, 10]?
**A.** 0%

**Q.** What about the mortality at 12.5 ppm [2, 10] of the same compound?
**A.** 0%

**Q.** And the mortality at 25 ppm [2, 10]?
**A.** 10%

**Q.** What about the mortality at 6.25 ppm [2, 11] of the same compound?
**A.** 0%

**Q.** What about the mortality at 12.5 ppm [2, 11] of the same compound?
**A.** 0%

**Q.** And the mortality at 25 ppm [2, 11]?
**A.** 10%

**Q.** And the Efficacy against fleas (fleas; 2 days after treatment)?
**A.** 14.3%

**Q.** And the Efficacy against fleas (fleas; 16 days after treatment)?
**A.** 12.4%

**Q.** And the Efficacy against fleas (fleas; 23 days after treatment)?
**A.** 16.3%

**Q.** What about the Efficacy against fleas (fleas; 30 days after treatment) of the same compound?
**A.** 20.2%

**Q.** And the Efficacy against fleas (fleas; 37 days after treatment)?
**A.** 32.5%

**Q.** What about the Efficacy against fleas (fleas; 44 days after treatment) of the same compound?
**A.** 25.9%

**Q.** `Cc1c([S+]([O-])C(F)(Cl)Cl)c(C#N)nn1-c1c(F)cc(C(F)(F)F)cc1Cl` (stereo not shown) [Compound 1, 3-cyano-1-(2-chloro-6-fluoro-4-trifluoromethylphenyl)-4-dichlorofluoromethylsulfinyl-5-methyl-1H-pyrazole] was tested. Which “Synergistic Ratio (EC50)” value ([2]; 6 hour Eval) did it give?
**A.** 11

**Q.** What about the “Synergistic Ratio (EC90)” value ([2]; 6 hour Eval) of the same compound?
**A.** >5.72

**Q.** And the “Synergistic Ratio (EC50)” value ([2]; 24 hour Eval)?
**A.** 135.3

**Q.** And the “Synergistic Ratio (EC90)” value ([2]; 24 hour Eval)?
**A.** 111.4

**Q.** What about the “Synergistic Ratio (EC50)” value ([2]; 48 hour Eval) of the same compound?
**A.** 133.1

**Q.** And the “Synergistic Ratio (EC90)” value ([2]; 48 hour Eval)?
**A.** 50.3

**Q.** What about the “% Efficacy against fleas” value (Ctenocephalides felis; Day 1, 10 mg/kg) of the same compound?
**A.** 99.84%

**Q.** And the “% Efficacy against fleas” value (Ctenocephalides felis; Day 1, 20 mg/kg)?
**A.** 100%

**Q.** And the “% Efficacy against fleas” value (Ctenocephalides felis; Day 15, 10 mg/kg)?
**A.** 99.81%

**Q.** And the “% Efficacy against fleas” value (Ctenocephalides felis; Day 15, 20 mg/kg)?
**A.** 100%

**Q.** What about the “% Efficacy against fleas” value (Ctenocephalides felis; Day 22, 10 mg/kg) of the same compound?
**A.** 100%

**Q.** What about the “% Efficacy against fleas” value (Ctenocephalides felis; Day 22, 20 mg/kg) of the same compound?
**A.** 100%

**Q.** What about the “% Efficacy against fleas” value (Ctenocephalides felis; Day 29, 10 mg/kg) of the same compound?
**A.** 100%

**Q.** What about the “% Efficacy against fleas” value (Ctenocephalides felis; Day 29, 20 mg/kg) of the same compound?
**A.** 100%

**Q.** What about the “% Efficacy against fleas” value (Ctenocephalides felis; Day 36, 10 mg/kg) of the same compound?
**A.** 99.43%

**Q.** What about the “% Efficacy against fleas” value (Ctenocephalides felis; Day 36, 20 mg/kg) of the same compound?
**A.** 100%

**Q.** What about the “% Efficacy against fleas” value (Ctenocephalides felis; Day 43, 10 mg/kg) of the same compound?
**A.** 97.28%

**Q.** What about the “% Efficacy against fleas” value (Ctenocephalides felis; Day 43, 20 mg/kg) of the same compound?
**A.** 100%

**Q.** Which results are given for `N#Cc1nn(-c2c(Cl)cc(C(F)(F)F)cc2Cl)c(N)c1[S+]([O-])C(F)(F)F` (stereo not shown) [fipronil, 5-amino-3-cyano-1-(2,6-dichloro-4-trifluoromethylphenyl)-4-trifluoromethylsulfinylpyrazole]?
**A.** Geometric Mean of movement values for stimulated ticks ([1]; 21-22 hours post infestation): 21,200; Geometric Mean of movement values for stimulated ticks ([1]; 1 hours post infestation): 51,000; Geometric Mean of movement values for stimulated ticks ([1]; 4 hours post infestation): 29,000; Geometric Mean of movement values for stimulated ticks ([1]; 18 hours post infestation): 17,400; Geometric Mean of movement values for stimulated ticks ([1]; 24 hours post infestation): 19,700; motility of ticks over time [1]: reduction in motility; Efficacy against fleas (fleas; 2 days after treatment): 100%; Efficacy against fleas (fleas; 16 days after treatment): 100%; Efficacy against fleas (fleas; 23 days after treatment): 100%; Efficacy against fleas (fleas; 30 days after treatment): 94.4%; Efficacy against fleas (fleas; 37 days after treatment): 63.4%; Efficacy against fleas (fleas; 44 days after treatment): 55.9%; Efficacy against fleas (fleas; 51 days after treatment): 74.7%; % Efficacy against fleas (Ctenocephalides felis; Day 1, 10 mg/kg): 97.96%; % Efficacy against fleas (Ctenocephalides felis; Day 15, 10 mg/kg): 100%; % Efficacy against fleas (Ctenocephalides felis; Day 22, 10 mg/kg): 100%; % Efficacy against fleas (Ctenocephalides felis; Day 29, 10 mg/kg): 95.59%; % Efficacy against fleas (Ctenocephalides felis; Day 36, 10 mg/kg): 99.24%; % Efficacy against fleas (Ctenocephalides felis; Day 43, 10 mg/kg): 97.81%
